The record followed here is patent US10710993B2, “Benzofuran pyrazole amine kinase inhibitor” (Hangzhou REX Pharmaceutical Co., LTD., priority 2016, dated 2020).

One may read the IC50 as the concentration at which inhibition is half-maximal.

One assay addresses T1, TEL-ALK-F1174L-BaF3 (Homo sapiens, UniProt Q9UM73, F1174L, cells depend on it).
T1 construct: fused on or other part: TEL (ETV6) N-terminal oligomerising part fused before the ALK intracellular/kinase part; P41212 (Transcription factor ETV6)
Kind of assay: Cell proliferation experiment (Cell-Titer GLO), TEL-ALK-F1174L-BaF3. As to conditions: 72 h, read-out: IC50 TEL-ALK F1174L-BaF3. It counts as cell-based. As for the experimental part: (§1) Compounds to be tested: Positive compound Ceritinib and the compounds obtained by the examples of the present invention.
(§2) Cell lines: Karpas-299 and NCI-H3122 which were purchased from the Nanjing kebai biotechnology Co. LTD; TEL-ALK-F1174L-BaF3, TEL-ALK-G1202R-BaF3, TEL-ALK-C1156Y-BaF3 and TEL-ALK-L1196M-BaF3 which were purchased from Hefei zhongkopruisheng biological medicine technology Co. LTD.
(§3) Method: Cells were seeded in 96-well plates for 24 h in growth media containing 10% fetalbovine serum (FBS) and cultured overnight at 37° C. The following day, serial dilutions of compounds or appropriate control were added to the designated wells, and cells were incubated at 37° C. for 72 h. A Cell Titer Glo assay (Promega) was then performed to determine the relative cell numbers. IC50 values were calculated by concentration-response curve fitting using a four-parameter analytical method with Graphpad 6.0. Drug inhibition rate (%)=100%−[OD(Compound)−OD(blank)]/[OD(vehicle)−OD(blank)]×100% Equation: […]

A further assay has as its target T2, TEL-ALK-G1202R-BaF3 (Homo sapiens, UniProt Q9UM73, G1202R, cells depend on it).
T2 construct: fused on or other part: TEL (ETV6) N-terminal oligomerising part fused before the ALK intracellular/kinase part; P41212 (Transcription factor ETV6)
Kind of assay: Cell proliferation experiment (Cell-Titer GLO), TEL-ALK-G1202R-BaF3. It counts as cell-based. Conditions: 72 h, read-out: IC50 TEL-ALK G1202R-BaF3. As for the experimental part:
as §1, §2, §3

The next assay deals with T3, Wild-Type ALK (Homo sapiens, UniProt Q9UM73).
T3 construct: purchased Life Technology
T3 sequence (Q9UM73 19-1620): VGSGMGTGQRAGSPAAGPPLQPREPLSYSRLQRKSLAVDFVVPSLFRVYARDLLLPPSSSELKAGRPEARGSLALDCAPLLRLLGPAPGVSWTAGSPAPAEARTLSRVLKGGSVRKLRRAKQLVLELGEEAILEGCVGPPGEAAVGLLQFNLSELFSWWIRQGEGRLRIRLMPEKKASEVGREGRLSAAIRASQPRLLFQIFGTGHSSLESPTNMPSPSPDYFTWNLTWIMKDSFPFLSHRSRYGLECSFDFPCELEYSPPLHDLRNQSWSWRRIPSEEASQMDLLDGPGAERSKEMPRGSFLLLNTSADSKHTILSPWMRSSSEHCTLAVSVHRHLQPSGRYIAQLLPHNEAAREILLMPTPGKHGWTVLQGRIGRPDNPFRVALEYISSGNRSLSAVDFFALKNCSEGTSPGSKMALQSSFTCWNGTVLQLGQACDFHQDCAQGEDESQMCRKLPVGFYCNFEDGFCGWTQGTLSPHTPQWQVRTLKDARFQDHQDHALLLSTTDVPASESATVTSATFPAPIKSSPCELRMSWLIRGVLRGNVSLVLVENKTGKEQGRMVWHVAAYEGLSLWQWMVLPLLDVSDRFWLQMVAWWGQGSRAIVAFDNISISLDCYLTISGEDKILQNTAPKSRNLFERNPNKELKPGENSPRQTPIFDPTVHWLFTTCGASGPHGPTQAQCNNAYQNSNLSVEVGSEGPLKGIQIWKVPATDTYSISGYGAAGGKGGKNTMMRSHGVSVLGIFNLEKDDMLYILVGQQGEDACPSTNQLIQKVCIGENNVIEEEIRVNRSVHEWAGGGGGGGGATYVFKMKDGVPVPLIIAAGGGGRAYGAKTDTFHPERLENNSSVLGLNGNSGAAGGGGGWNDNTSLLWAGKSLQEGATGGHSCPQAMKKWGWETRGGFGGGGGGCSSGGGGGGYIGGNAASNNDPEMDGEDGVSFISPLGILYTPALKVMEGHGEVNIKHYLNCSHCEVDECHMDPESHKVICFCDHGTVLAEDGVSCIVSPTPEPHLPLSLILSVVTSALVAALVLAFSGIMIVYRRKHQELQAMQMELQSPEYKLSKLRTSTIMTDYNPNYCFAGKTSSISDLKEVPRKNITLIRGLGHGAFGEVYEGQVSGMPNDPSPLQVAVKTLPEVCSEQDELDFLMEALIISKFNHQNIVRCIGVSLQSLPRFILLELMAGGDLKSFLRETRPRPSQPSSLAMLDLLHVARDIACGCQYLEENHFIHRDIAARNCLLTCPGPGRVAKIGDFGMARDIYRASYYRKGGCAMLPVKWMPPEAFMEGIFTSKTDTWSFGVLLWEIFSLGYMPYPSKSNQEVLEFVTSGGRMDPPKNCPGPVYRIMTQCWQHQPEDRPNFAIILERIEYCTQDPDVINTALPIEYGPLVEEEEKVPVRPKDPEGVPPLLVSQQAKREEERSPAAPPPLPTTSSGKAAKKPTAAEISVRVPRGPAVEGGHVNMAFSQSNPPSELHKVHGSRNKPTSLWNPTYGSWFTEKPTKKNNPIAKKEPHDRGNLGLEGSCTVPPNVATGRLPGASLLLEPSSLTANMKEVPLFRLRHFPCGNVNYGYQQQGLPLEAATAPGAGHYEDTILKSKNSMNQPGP
Kind of assay: Z'-LYTE (FRET) ALK kinase inhibitory activity. It counts as biochemical. As for the experimental part: (§4) The kinase activity assay was determined by using kinase assay panel (Life Technology) and the result was in table 1.

In the next assay the target is T4, ALK L1196M (Homo sapiens, UniProt Q9UM73, L1196M).
T4 construct: purchased Life Technology
T4 sequence (Q9UM73 19-1620 L1196M): as the sequence (Q9UM73 19-1620) above, with L1178M counted along it
Kind of assay: LanthaScreen Eu Kinase Binding Assay (TR-FRET) on ALK mutant.
From the text: Meanwhile, The LanthaScreen® Eu Kinase Binging Assay (TR-FRET) method was used for determining ALK Mutants (such as ALK L1196M) inhibitory activity IC50. LanthaScreen Eu kinase binding experiment detected Alexa Fluor conjugate or kinase “tracer” binding by adding Eu labeled antibodies or anti-label antibodies. The combination of tracer and antibody with kinase leads to a high level of FRET, whereas the use of kinase inhibitors in place of tracer may cause FRET loss.
as §4
(In TR-FRET formats the signal depends on donor and acceptor labels being close together.)

The test system of another assay is NCI-H3122. As to the kind of experiment: Cell proliferation experiment (Cell-Titer GLO), NCI-H3122. Conditions: Homo sapiens, 72 h. It counts as cell-based. As to the method:
as §1, §2, §3

T2 sequence (Q9UM73 whole entry G1202R, the tested form may be a part): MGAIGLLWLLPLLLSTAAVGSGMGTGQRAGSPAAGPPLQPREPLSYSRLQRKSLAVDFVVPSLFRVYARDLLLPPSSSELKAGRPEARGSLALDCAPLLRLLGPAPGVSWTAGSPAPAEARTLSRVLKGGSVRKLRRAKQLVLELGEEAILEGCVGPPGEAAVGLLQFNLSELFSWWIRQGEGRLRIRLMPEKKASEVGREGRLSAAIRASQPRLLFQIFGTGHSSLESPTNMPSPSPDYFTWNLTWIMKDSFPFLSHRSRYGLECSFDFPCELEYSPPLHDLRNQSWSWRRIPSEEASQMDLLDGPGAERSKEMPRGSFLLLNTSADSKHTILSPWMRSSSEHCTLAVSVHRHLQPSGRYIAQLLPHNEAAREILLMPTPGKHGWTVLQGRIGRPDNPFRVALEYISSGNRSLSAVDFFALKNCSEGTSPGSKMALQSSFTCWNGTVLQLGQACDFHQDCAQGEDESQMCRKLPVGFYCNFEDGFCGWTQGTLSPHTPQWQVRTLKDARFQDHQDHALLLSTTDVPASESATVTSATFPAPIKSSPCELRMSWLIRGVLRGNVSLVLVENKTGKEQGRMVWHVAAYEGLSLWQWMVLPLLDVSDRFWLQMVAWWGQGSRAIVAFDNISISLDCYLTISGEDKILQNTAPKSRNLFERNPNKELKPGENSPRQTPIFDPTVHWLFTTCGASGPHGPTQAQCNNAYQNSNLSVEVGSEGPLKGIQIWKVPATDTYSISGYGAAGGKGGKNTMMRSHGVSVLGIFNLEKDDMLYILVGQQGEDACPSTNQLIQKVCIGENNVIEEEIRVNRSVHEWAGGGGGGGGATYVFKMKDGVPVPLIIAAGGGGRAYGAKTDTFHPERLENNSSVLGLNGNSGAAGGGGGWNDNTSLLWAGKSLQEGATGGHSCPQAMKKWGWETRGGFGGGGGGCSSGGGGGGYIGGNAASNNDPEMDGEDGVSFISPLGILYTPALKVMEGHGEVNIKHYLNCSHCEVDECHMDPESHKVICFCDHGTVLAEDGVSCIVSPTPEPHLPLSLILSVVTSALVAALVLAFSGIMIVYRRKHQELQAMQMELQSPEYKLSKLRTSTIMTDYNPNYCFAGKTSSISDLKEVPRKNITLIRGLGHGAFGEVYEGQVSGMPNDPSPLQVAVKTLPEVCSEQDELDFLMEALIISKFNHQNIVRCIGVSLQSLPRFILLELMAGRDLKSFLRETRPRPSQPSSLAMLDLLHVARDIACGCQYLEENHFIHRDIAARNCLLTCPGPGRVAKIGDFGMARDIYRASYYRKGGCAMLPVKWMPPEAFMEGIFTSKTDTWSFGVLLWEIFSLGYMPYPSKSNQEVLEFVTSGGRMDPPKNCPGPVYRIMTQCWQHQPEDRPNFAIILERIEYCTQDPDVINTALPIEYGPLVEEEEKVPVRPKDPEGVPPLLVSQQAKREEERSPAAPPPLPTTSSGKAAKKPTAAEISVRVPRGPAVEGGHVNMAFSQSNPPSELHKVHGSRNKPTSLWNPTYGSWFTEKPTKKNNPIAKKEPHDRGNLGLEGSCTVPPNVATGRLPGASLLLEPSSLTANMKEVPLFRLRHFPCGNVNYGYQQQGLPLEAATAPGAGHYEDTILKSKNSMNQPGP
T1 sequence (Q9UM73 whole entry F1174L, the tested form may be a part): as the sequence (Q9UM73 whole entry G1202R, the tested form may be a part) above, with F1174L, R1202G counted along it

As for `Cc1cc(Nc2ncc(Cl)c(Nc3cn(C)nc3S(=O)(=O)C(C)C)n2)c2c(c1C1CCNCC1)CCC(C)O2` (stereo not shown) [REX-D22, 5-chloro-N^2-(2,6-dimethyl-5-(piperidin-4-yl)chroman-8-yl)-N^4-(3-(isopropylsulfonyl)-1-methyl-1H-pyrazol-4-yl)pyrimidine-2,4-diamine], the results for the GI50 at TEL-ALK-F1174L-BaF3 and at TEL-ALK-G1202R-BaF3 were 32.6 nM and over 180 nM, respectively.
Take `Cc1cc(Nc2nc(Nc3cn(C)nc3S(=O)(=O)C(C)C)c3sccc3n2)c2c(c1C1CCN(C)CC1)C[C@@H](C)O2` [REX-D30, (R)—N^2-(2,5-dimethyl-4-(1-methylpiperidin-4-yl)-2,3-dihydrobenzofuran-7-yl)-N^4-(3-(isopropylsulfonyl)-1-methyl-1H-pyrazol-4-yl)thieno[3,2-d]pyrimidine-2,4-diamine]: the results for the GI50 on TEL-ALK-F1174L-BaF3 and on TEL-ALK-G1202R-BaF3 were over 500 nM and over 180 nM, respectively.
Consider `Cc1cc(Nc2ncc(Cl)c(Nc3cn(C)nc3S(=O)(=O)CC(C)C)n2)c2c(c1C1CCNCC1)C[C@@H](C)O2` [REX-D37, (R)-5-chloro-N^2-(2,5-dimethyl-4-(piperidin-4-yl)-2,3-dihydrobenzofuran-7-yl)-N^4-(3-(isobutylsulfonyl)-1-methyl-1H-pyrazol-4-yl)pyrimidine-2,4-diamine], for which the GI50 on TEL-ALK-F1174L-BaF3 is 58.7 nM; on TEL-ALK-G1202R-BaF3 it was over 180 nM.
As to `CC(=O)N1CCC(c2c(C)cc(Nc3ncc(Cl)c(Nc4cn(C)nc4S(=O)(=O)C(C)C)n3)c3c2C[C@@H](C)O3)CC1` [REX-D12, (R)-1-(4-(7-((5-chloro-4-((3-(isopropylsulfonyl)-1-methyl-1H-pyrazol-4-yl)amino)pyrimidin-2-yl)amino)-2,5-dimethyl-2,3-dihydrobenzofuran-4-yl)piperidin-1-yl)ethanone], the IC50 against Wild-Type ALK was found to be 9.21 nM; on ALK L1196M, 1.07 nM; with NCI-H3122, 10.7 nM. Further, the GI50 was 11.6 nM at TEL-ALK-F1174L-BaF3 and over 180 nM at TEL-ALK-G1202R-BaF3.
Consider `Cc1cc(Nc2nc(Nc3cn(C)nc3S(=O)(=O)C(C)C)c3sccc3n2)c2c(c1C1CCNCC1)C[C@@H](C)O2` [REX-D29, (R)—N^2-(2,5-dimethyl-4-(piperidin-4-yl)-2,3-dihydrobenzofuran-7-yl)-N^4-(3-(isopropylsulfonyl)-1-methyl-1H-pyrazol-4-yl)thieno[3,2-d]pyrimidine-2,4-diamine], for which the GI50 on TEL-ALK-F1174L-BaF3 was over 500 nM; on TEL-ALK-G1202R-BaF3 it was over 180 nM.
`Cc1cc(Nc2ncc(Cl)c(Nc3cn(C(C)C)nc3S(=O)(=O)C(C)C)n2)c2c(c1C1CCN(C)CC1)C[C@@H](C)O2` [REX-D35, (R)-5-chloro-N^2-(2,5-dimethyl-4-(1-methylpiperidin-4-yl)-2,3-dihydrobenzofuran-7-yl)-N^4-(1-isopropyl-3-(isopropylsulfonyl)-1H-pyrazol-4-yl)pyrimidine-2,4-diamine]: the IC50 came to 13.9 nM at Wild-Type ALK, 1.99 nM on ALK L1196M and 40.3 nM in the assay with NCI-H3122. For the same compound, the figures for the GI50 at TEL-ALK-F1174L-BaF3 and at TEL-ALK-G1202R-BaF3 were 80.4 nM and over 180 nM, respectively.
For `Cc1cc(Nc2ncc(Cl)c(Nc3cn(C(C)C)nc3S(=O)(=O)C(C)C)n2)c2c(c1C1CCNCC1)C[C@@H](C)O2` [REX-D32, (R)-5-chloro-N^2-(2,5-dimethyl-4-(piperidin-4-yl)-2,3-dihydrobenzofuran-7-yl)-N^4-(1-isopropyl-3-(isopropylsulfonyl)-1H-pyrazol-4-yl)pyrimidine-2,4-diamine], the IC50 came to 19.3 nM against Wild-Type ALK, 3.86 nM on ALK L1196M and 57.2 nM in the assay with NCI-H3122. In addition, the values for the GI50 on TEL-ALK-F1174L-BaF3 and on TEL-ALK-G1202R-BaF3 were under 200 nM and over 180 nM, respectively.
Turning to `Cc1cc(Nc2ncc(Cl)c(Nc3cn(C4CC4)nc3S(=O)(=O)C(C)C)n2)c2c(c1C1CCNCC1)C[C@@H](C)O2` [REX-D31, (R)-5-chloro-N^4-(1-cyclopropyl-3-(isopropylsulfonyl)-1H-pyrazol-4-yl)-N^2-(2,5-dimethyl-4-(piperidin-4-yl)-2,3-dihydrobenzofuran-7-yl)pyrimidine-2,4-diamine], the 50% inhibitory concentration (IC50) against Wild-Type ALK was found to be 15.1 nM; at ALK L1196M, 1.92 nM; with NCI-H3122 it was 40.4 nM. The GI50 is 138 nM on TEL-ALK-F1174L-BaF3 and over 180 nM on TEL-ALK-G1202R-BaF3.
As to `Cc1cc(Nc2ncc(C(F)(F)F)c(Nc3cn(C)nc3S(=O)(=O)CC(C)C)n2)c2c(c1C1CCN(C)CC1)C[C@@H](C)O2` [REX-D10, (R)—N^2-(2,5-dimethyl-4-(1-methylpiperidin-4-yl)-2,3-dihydrobenzofuran-7-yl)-N^4-(3-(isobutylsulfonyl)-1-methyl-1H-pyrazol-4-yl)-5-(trifluoromethyl)pyrimidine-2,4-diamine], the results for the IC50 at Wild-Type ALK, on ALK L1196M and in the assay with NCI-H3122 were 17.1 nM, under 0.5 nM and 14.2 nM, respectively. Besides, the GI50 is under 200 nM on TEL-ALK-F1174L-BaF3 and over 180 nM on TEL-ALK-G1202R-BaF3.
For `Cc1cc(Nc2ncc(Cl)c(Nc3cn(C)nc3S(=O)(=O)CC(C)C)n2)c2c(c1C1CCN(C)CC1)C[C@@H](C)O2` [REX-D38, (R)-5-chloro-N^2-(2,5-dimethyl-4-(1-methylpiperidin-4-yl)-2,3-dihydrobenzofuran-7-yl)-N^4-(3-(isobutylsulfonyl)-1-methyl-1H-pyrazol-4-yl)pyrimidine-2,4-diamine], the GI50 at TEL-ALK-F1174L-BaF3 was under 10 nM; at TEL-ALK-G1202R-BaF3, over 180 nM.
Consider `Cc1cc(Nc2ncc(Cl)c(Nc3cn(C)nc3S(=O)(=O)C(C)C)n2)c2c(c1C1CCN(C)CC1)CCC(C)O2` (stereo not shown) [REX-D25, 5-chloro-N^2-(2,6-dimethyl-5-(1-methylpiperidin-4-yl)chroman-8-yl)-N^4-(3-(isopropylsulfonyl)-1-methyl-1H-pyrazol-4-yl)pyrimidine-2,4-diamine], for which the GI50 at TEL-ALK-F1174L-BaF3 is 11.1 nM; at TEL-ALK-G1202R-BaF3 it was over 180 nM.
For `CC(C)S(=O)(=O)c1nn(C)cc1Nc1nc(Nc2cc(F)c(C3CCNCC3)c3c2O[C@H](C)C3)ncc1Cl` [REX-D21, (R)-5-chloro-N^2-(5-fluoro-2-methyl-4-(piperidin-4-yl)-2,3-dihydrobenzofuran-7-yl)-N^4-(3-(isopropylsulfonyl)-1-methyl-1H-pyrazol-4-yl)pyrimidine-2,4-diamine], the GI50 on TEL-ALK-F1174L-BaF3 was 17.8 nM; on TEL-ALK-G1202R-BaF3 it was over 180 nM.
For `CC(C)S(=O)(=O)c1nn(C)cc1Nc1nc(Nc2cc(F)c(C3CCN(C)CC3)c3c2O[C@H](C)C3)ncc1C(F)(F)F` [REX-D8, (R)—N^2-(5-fluoro-2-methyl-4-(1-methylpiperidin-4-yl)-2,3-dihydrobenzofuran-7-yl)-N^4-(3-(isopropylsulfonyl)-1-methyl-1H-pyrazol-4-yl)-5-(trifluoromethyl)pyrimidine-2,4-diamine], in that order: 11.4 nM and over 180 nM.
As to `CC(C)S(=O)(=O)c1nn(C)cc1Nc1nc(Nc2cc(F)c(C3CCN(C)CC3)c3c2O[C@H](C)C3)ncc1Cl` [REX-D24, (R)-5-chloro-N^2-(5-fluoro-2-methyl-4-(1-methylpiperidin-4-yl)-2,3-dihydrobenzofuran-7-yl)-N^4-(3-(isopropylsulfonyl)-1-methyl-1H-pyrazol-4-yl)pyrimidine-2,4-diamine], the GI50 is under 10 nM on TEL-ALK-F1174L-BaF3 and over 180 nM on TEL-ALK-G1202R-BaF3.
Consider `Cc1cc(Nc2ncc(Cl)c(Nc3cn(C4CC4)nc3S(=O)(=O)CC(C)C)n2)c2c(c1C1CCNCC1)C[C@@H](C)O2` [REX-D40, (R)-5-chloro-N^4-(1-cyclopropyl-3-(isobutylsulfonyl)-1H-pyrazol-4-yl)-N^2-(2,5-dimethyl-4-(piperidin-4-yl)-2,3-dihydrobenzofuran-7-yl)pyrimidine-2,4-diamine], for which the GI50 on TEL-ALK-F1174L-BaF3 is 94.8 nM; at TEL-ALK-G1202R-BaF3, over 180 nM.
For the compound `Cc1cc(Nc2ncc(Cl)c(Nc3cn(C)nc3S(=O)(=O)CC(C)C)n2)c2c(c1C1CCN(CCO)CC1)C[C@@H](C)O2` [REX-D39, (R)-2-(4-(7-((5-chloro-4-((3-(isobutylsulfonyl)-1-methyl-1H-pyrazol-4-yl)amino)pyrimidin-2-yl)amino)-2,5-dimethyl-2,3-dihydrobenzofuran-4-yl)piperidin-1-yl)ethanol], the GI50 was under 10 nM at TEL-ALK-F1174L-BaF3 and over 180 nM on TEL-ALK-G1202R-BaF3.
Taken in the same sequence, the figures for `Cc1cc(Nc2ncc(Cl)c(Nc3cn(C4CC4)nc3S(=O)(=O)CC(C)C)n2)c2c(c1C1CCN(C)CC1)C[C@@H](C)O2` [REX-D41, (R)-5-chloro-N^4-(1-cyclopropyl-3-(isobutylsulfonyl)-1H-pyrazol-4-yl)-N^2-(2,5-dimethyl-4-(1-methylpiperidin-4-yl)-2,3-dihydrobenzofuran-7-yl)pyrimidine-2,4-diamine] were 23.7 nM and over 180 nM.
